Experimental data from the NIST ThermoML archive (doi:10.1016/j.jct.2013.02.023).

Conditions: relaxation calorimetry - Quantum Design PPMS; for molar entropy: 101.33 kPa

O=P([O-])([O-])OP(=O)([O-])[O-].O=P([O-])([O-])OP(=O)([O-])[O-].O=P([O-])([O-])OP(=O)([O-])[O-].[Fe+3].[Fe+3].[Fe+3].[Fe+3] [iron(III) diphosphate]
Conditions | molar entropy [J/K/mol]
1 K, Crystal 3 | 0.07578
2 K, Crystal 3 | 0.1665
3 K, Crystal 3 | 0.2869
4 K, Crystal 3 | 0.4556
5 K, Crystal 3 | 0.6947
6 K, Crystal 3 | 1.027
7 K, Crystal 3 | 1.472
8 K, Crystal 3 | 2.047
9 K, Crystal 3 | 2.754
10 K, Crystal 3 | 3.591
11 K, Crystal 3 | 4.553
12 K, Crystal 3 | 5.629
13 K, Crystal 3 | 6.809
14 K, Crystal 3 | 8.084
15 K, Crystal 3 | 9.437
16 K, Crystal 3 | 10.86
17 K, Crystal 3 | 12.36
18 K, Crystal 3 | 13.92
19 K, Crystal 3 | 15.55
20 K, Crystal 3 | 17.25
25 K, Crystal 3 | 26.52
30 K, Crystal 2 | 36.76
35 K, Crystal 2 | 47.46
40 K, Crystal 2 | 59.06
45 K, Crystal 2 | 71.73
50 K, Crystal 1 | 84.46
55 K, Crystal 1 | 93.95
60 K, Crystal 1 | 103.22
65 K, Crystal 1 | 112.55
70 K, Crystal 1 | 121.98
75 K, Crystal 1 | 131.56
80 K, Crystal 1 | 141.27
85 K, Crystal 1 | 151.12
90 K, Crystal 1 | 161.1
95 K, Crystal 1 | 171.2
100 K, Crystal 1 | 181.43
110 K, Crystal 1 | 202.07
120 K, Crystal 1 | 222.81
130 K, Crystal 1 | 243.5
140 K, Crystal 1 | 264.06
150 K, Crystal 1 | 284.46
160 K, Crystal 1 | 304.66
170 K, Crystal 1 | 324.67
180 K, Crystal 1 | 344.47
190 K, Crystal 1 | 364.05
200 K, Crystal 1 | 383.42
210 K, Crystal 1 | 402.56
220 K, Crystal 1 | 421.48
230 K, Crystal 1 | 440.17
240 K, Crystal 1 | 458.61
250 K, Crystal 1 | 476.82
260 K, Crystal 1 | 494.79
270 K, Crystal 1 | 512.5
273.15 K, Crystal 1 | 518.03
280 K, Crystal 1 | 529.97
290 K, Crystal 1 | 547.19
298.15 K, Crystal 1 | 561.03
300 K, Crystal 1 | 564.15

Conditions | Triple point temperature [K]
Crystal 2 | 47.6
Crystal 3 | 27.3
